The text below walks through data of ChEMBL document CHEMBL1123112, “A new generation of phosphodiesterase inhibitors: multiple molecular forms of phosphodiesterase and the potential for drug selectivity” (J Med Chem, 1985).

Bounds are passed on as bounds.

The target in assay [1] is T1, Phosphodiesterase 1 (Homo sapiens, UniProt P54750+Q01064+Q14123). Briefly: Binding affinity for [Ca(2+)]/calmodulin dependent phosphodiesterase PDE 1 of human brain.
Assay [2] has as its target T2, Phosphodiesterase 3 (Homo sapiens, UniProt Q14432+Q13370). In words: Binding affinity for low Km cAMP phosphodiesterase PDE III of human platelets.
In assay [3] the target is T2, Phosphodiesterase 3. In words: Inhibition of low Km cAMP phosphodiesterase PDE III of human platelets.
Assay [4] deals with T1, Phosphodiesterase 1. In words: Inhibition of [Ca(2+)]/calmodulin dependent phosphodiesterase PDE 1 of human brain.
For assay [5], the target named is T1, Phosphodiesterase 1. Briefly: Binding affinity for [Ca(2+)]/calmodulin dependent phosphodiesterase PDE 1 of sheep lung. Format: protein assay, Ovis aries. Particulars: target entry is the homologue from another species.
In assay [6] the target is T2, Phosphodiesterase 3. Briefly: Binding affinity for low Km cAMP phosphodiesterase PDE III of sheep lung. To be noted: target entry is the homologue from another species.
Assay [7] has as its target T2, Phosphodiesterase 3. Briefly: Inhibition of low Km cyclic cAMP phosphodiesterase PDE III of guinea pig ventricle. Format: protein assay, Cavia porcellus. To be noted: target entry is the homologue from another species.
The target of assay [8] is T1, Phosphodiesterase 1. In words: Inhibition of [Ca(2+)]/calmodulin dependent phosphodiesterase PDE 1 of guinea pig ventricle. The format is protein assay, Cavia porcellus. To be noted: target entry is the homologue from another species.
Assay [9] deals with T3, cGMP-dependent 3',5'-cyclic phosphodiesterase (Homo sapiens, UniProt O00408). In words: Inhibition of cyclic GMP sensitive phosphodiesterase PDE 2 of guinea pig ventricle. The arrangement: species or system Cavia porcellus. Particulars: target entry is the homologue from another species.
T3 sequence (O00408 whole entry): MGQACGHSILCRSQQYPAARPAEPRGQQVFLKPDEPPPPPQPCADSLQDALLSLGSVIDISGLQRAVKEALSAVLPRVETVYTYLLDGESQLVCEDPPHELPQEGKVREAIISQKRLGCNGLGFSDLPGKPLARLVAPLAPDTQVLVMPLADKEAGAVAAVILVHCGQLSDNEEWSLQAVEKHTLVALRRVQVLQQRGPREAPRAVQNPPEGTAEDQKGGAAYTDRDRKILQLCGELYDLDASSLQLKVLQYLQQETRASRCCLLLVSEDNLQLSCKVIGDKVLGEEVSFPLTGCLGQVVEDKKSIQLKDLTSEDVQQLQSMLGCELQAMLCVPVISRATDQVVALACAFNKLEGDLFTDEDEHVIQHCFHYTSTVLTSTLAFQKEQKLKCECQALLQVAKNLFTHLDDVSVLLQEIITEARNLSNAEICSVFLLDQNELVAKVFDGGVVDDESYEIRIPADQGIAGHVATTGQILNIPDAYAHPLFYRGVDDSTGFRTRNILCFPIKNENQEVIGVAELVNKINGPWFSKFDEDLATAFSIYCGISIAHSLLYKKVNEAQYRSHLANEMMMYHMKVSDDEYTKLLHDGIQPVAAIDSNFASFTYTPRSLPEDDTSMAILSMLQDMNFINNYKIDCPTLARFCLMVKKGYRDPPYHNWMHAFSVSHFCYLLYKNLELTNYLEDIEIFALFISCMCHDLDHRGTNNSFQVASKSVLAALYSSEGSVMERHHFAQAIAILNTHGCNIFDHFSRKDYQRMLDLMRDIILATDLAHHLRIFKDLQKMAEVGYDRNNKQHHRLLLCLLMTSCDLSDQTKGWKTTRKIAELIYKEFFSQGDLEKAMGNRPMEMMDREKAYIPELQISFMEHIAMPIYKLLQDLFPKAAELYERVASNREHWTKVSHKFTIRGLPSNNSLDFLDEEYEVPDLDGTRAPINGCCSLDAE
Assay [10] addresses T1, Phosphodiesterase 1. Briefly: Percent inhibition of [Ca(2+)]/calmodulin dependent phosphodiesterase PDE 1 of guinea pig ventricle. The format is protein assay. Particulars: Cavia porcellus; target entry is the homologue from another species; concentration not given here.
The target in assay [11] is T3, cGMP-dependent 3',5'-cyclic phosphodiesterase. Briefly: Percent inhibition of cyclic GMP sensitive phosphodiesterase PDE 2 of guinea pig ventricle. To be noted: Cavia porcellus; target entry is the homologue from another species; concentration not given here.
The target of assay [12] is T2, Phosphodiesterase 3. Briefly: Percent inhibition of low Km cyclic cAMP phosphodiesterase PDE III of guinea pig ventricle. Particulars: Cavia porcellus; target entry is the homologue from another species; concentration not given here. The format is protein assay.
Assay [13] has as its target T1, Phosphodiesterase 1. In words: Inhibition of [Ca(2+)]/calmodulin dependent phosphodiesterase PDE 1 of rabbit renal cortex. Particulars: Oryctolagus cuniculus; target entry is the homologue from another species.
Assay [14] deals with T1, Phosphodiesterase 1. Briefly: Inhibition of [Ca(2+)]/calmodulin dependent phosphodiesterase PDE 1 of human lung. Format: protein assay.
The target of assay [15] is T3, cGMP-dependent 3',5'-cyclic phosphodiesterase. In words: Inhibition of cyclic GMP sensitive phosphodiesterase PDE 2 of human lung.
Assay [16] has as its target T2, Phosphodiesterase 3. Briefly: Binding affinity for low Km cAMP phosphodiesterase PDE III of sheep lung. Format: protein assay, Ovis aries. Particulars: target entry is the homologue from another species.
In assay [17] the target is T2, Phosphodiesterase 3. In words: Inhibition of low Km cyclic AMP phosphodiesterase PDE III of canine ventricle. Format: protein assay, Canis lupus familiaris. To be noted: target entry is the homologue from another species.

Take `CCOC(CN1CCN(S(=O)(=O)c2ccc3ncnc(N(C)c4ccccc4)c3c2)CC1)c1ccccc1` (centres undefined): the Ki – broadly, the equilibrium dissociation constant of an inhibitor or competing ligand from its target – at Phosphodiesterase 1 [1] amounted to 4 µM; at Phosphodiesterase 3 [2] it was 270 µM. As to `Clc1cccc(Nc2nnc(-c3ccccc3)c3ccccc23)c1`, at Phosphodiesterase 3 [2], the Ki amounted to 16 µM. As to `CCC(O)CN(C(=O)CCCCOc1ccc2c(c1)CCC(=O)N2)c1ccccc1` (centres undefined), the IC50 (in general, the concentration that gives 50% inhibition) on Phosphodiesterase 3 [3] is 0.073 µM; against Phosphodiesterase 1 [4] it was > 1000 µM.

Turning to `CCCc1nc(C)cn2c(NC(C)=O)nnc12`, the Ki at Phosphodiesterase 1 [5] was 717 µM; at Phosphodiesterase 3 [6], 217 µM. Consider `COc1ccc(-c2nc3ccc[nH]c-3n2)c(OC)c1`, for which the concentration for half-maximal inhibition (IC50) against Phosphodiesterase 3 [7] was found to be 390 µM; on Phosphodiesterase 1 [8] it was 265 µM; in assay [9] it was 57 µM. In the case of `CC(Cl)C(=O)Nc1ccc(C2=NNC(=O)CC2C)cc1` (centres undefined), the inhibition (usually the share of the control response that was lost under treatment) came out at 5% at Phosphodiesterase 1 [10], 0% in assay [11] and 92% at Phosphodiesterase 3 [12]. The matching figures for `CC1CC(=O)NN=C1c1ccc2c(c1)CCC(=O)N2C` (centres undefined): 15%, 6% and 97%. Turning to `COc1ccc(C2CNC(=O)C2)cc1OC1CCCC1` (centres undefined), at Phosphodiesterase 1 [13], the 25% effect level (IC25) was put at 1400 µM. Take `CCCCc1cc2c(=O)cc(C(=O)O)[nH]c2c2c(=O)cc(C(=O)O)[nH]c12` [BUFROLIN]: the IC50 against Phosphodiesterase 1 [14] is 16 µM; in assay [15], 80 µM. With `CN(C(=O)CCCOc1ccc2[nH]c(=O)ccc2c1)C1CCCCC1` [CILOSTAMIDE], at Phosphodiesterase 1 [1], the Ki is 22 µM. Regarding `O=C1CCc2cc(OCCCCc3nnnn3C3CCCCC3)ccc2N1` [CILOSTAZOL], the 50% inhibitory concentration (IC50) at Phosphodiesterase 3 [3] was 0.19 µM; on Phosphodiesterase 1 [4], > 1000 µM. In the case of `OCCN(CCO)c1nc(N2CCCCC2)c2nc(N(CCO)CCO)nc(N3CCCCC3)c2n1` [DIPYRIDAMOLE], the IC50 on Phosphodiesterase 3 [7] was determined as 43 µM. This lies in the double-digit micromolar range. For `CSc1ccc(C(=O)c2[nH]c(=O)[nH]c2C)cc1` [ENOXIMONE], the IC50 at Phosphodiesterase 1 [8] was > 1000 µM; in assay [9], 520 µM. Take `CCOC(=O)c1cnc2c(cnn2CC)c1NN=C(C)C` [ETAZOLATE]: the values for the Ki on Phosphodiesterase 1 [5] and at Phosphodiesterase 3 [16] were 60 µM and 12 µM, respectively. For `Nc1cc(-c2ccncc2)c[nH]c1=O` [INAMRINONE], the IC50 against Phosphodiesterase 1 [8] was > 1000 µM; in assay [9] it was 700 µM.

As to `CC(C)Cn1c(=O)n(C)c(=O)c2nc[nH]c21` [ISOBUTYLMETHYLXANTHINE], the IC50 amounted to 3.4 µM on Phosphodiesterase 1 [14] and 12 µM in assay [15]. On to `CCOC(=O)c1c(C)cc2c(CO)n[nH]c(=O)c2c1C` [OXAGRELATE], for which the results for the Ki on Phosphodiesterase 1 [1] and on Phosphodiesterase 3 [2] were 10 µM and 1.4 µM, respectively. `CCc1[nH]c(=O)[nH]c1C(=O)c1ccncc1` [PIROXIMONE] had an IC50 against Phosphodiesterase 3 [17] of 8.6 µM. On to `CCCCOc1cc(CC2CNC(=O)N2)ccc1OC` (centres undefined) [RO-201724], for which the IC50 was found to be 250 µM against Phosphodiesterase 1 [14] and 390 µM in assay [15]. For the compound `COc1cc([S+](C)[O-])ccc1-c1nc2ncccc2[nH]1` (centres undefined) [SULMAZOLE], it took 200 µM to reach half-maximal inhibition in [9] (IC50). Turning to `Cn1c(=O)c2nc[nH]c2n(C)c1=O.O` [THEOPHYLLINE], the IC50 was found to be 320 µM on Phosphodiesterase 1 [8] and 210 µM in [9].
